Measured values: the NIST ThermoML archive (doi:10.1016/j.fluid.2007.04.023)

Settings: Liquid, Vibrating tube method

CCCCCCCCCCCC [dodecane]
Settings	mass density [kg/m3]
313.09 K, 1022 kPa	735.79
313.09 K, 2023 kPa	736.6
313.09 K, 3017 kPa	737.36
313.09 K, 4026 kPa	738.14
313.09 K, 5023 kPa	738.89
313.09 K, 6032 kPa	739.66
313.09 K, 7011 kPa	740.38
313.09 K, 8009 kPa	741.15
313.09 K, 9026 kPa	741.91
313.09 K, 10008 kPa	742.66
313.09 K, 11022 kPa	743.39
313.09 K, 12012 kPa	744.09
313.09 K, 13019 kPa	744.82
313.09 K, 14017 kPa	745.55
313.09 K, 15025 kPa	746.22
313.09 K, 16025 kPa	746.91
313.09 K, 17015 kPa	747.58
313.09 K, 18022 kPa	748.26
313.09 K, 19025 kPa	748.93
313.09 K, 20013 kPa	749.59
313.09 K, 21015 kPa	750.23
313.09 K, 22011 kPa	750.9
313.09 K, 23021 kPa	751.53
313.09 K, 24015 kPa	752.21
313.09 K, 24354 kPa	752.42
322.97 K, 1025 kPa	728.33
322.97 K, 2028 kPa	729.17
322.97 K, 3026 kPa	729.97
322.97 K, 4034 kPa	730.78
322.97 K, 5021 kPa	731.59
322.97 K, 6017 kPa	732.37
322.97 K, 7017 kPa	733.17
322.97 K, 8041 kPa	733.99
322.97 K, 9015 kPa	734.73
322.97 K, 10016 kPa	735.5
322.97 K, 11019 kPa	736.28
322.97 K, 12011 kPa	737.01
322.97 K, 13028 kPa	737.78
322.97 K, 14041 kPa	738.53
322.97 K, 14994 kPa	739.22
322.97 K, 16027 kPa	739.96
322.97 K, 17001 kPa	740.64
322.97 K, 18015 kPa	741.35
322.97 K, 19032 kPa	742.07
322.97 K, 20004 kPa	742.74
322.97 K, 21009 kPa	743.43
322.97 K, 22023 kPa	744.14
322.97 K, 23009 kPa	744.8
322.97 K, 24013 kPa	745.5
322.97 K, 24507 kPa	745.83
332.8 K, 1023 kPa	721.08
332.8 K, 2019 kPa	721.96
332.8 K, 3022 kPa	722.81
332.8 K, 4030 kPa	723.69
332.8 K, 5026 kPa	724.53
332.8 K, 6035 kPa	725.36
332.8 K, 7014 kPa	726.16
332.8 K, 8025 kPa	727.03
332.8 K, 9017 kPa	727.84
332.8 K, 10020 kPa	728.67
332.8 K, 11023 kPa	729.46
332.8 K, 12022 kPa	730.26
332.8 K, 13004 kPa	731.04
332.8 K, 14008 kPa	731.81
332.8 K, 15018 kPa	732.57
332.8 K, 16023 kPa	733.35
332.8 K, 17014 kPa	734.08
332.8 K, 18006 kPa	734.82
332.8 K, 19024 kPa	735.59
332.8 K, 20023 kPa	736.32
332.8 K, 21009 kPa	737.01
332.8 K, 22009 kPa	737.73
332.8 K, 23018 kPa	738.45
332.8 K, 24018 kPa	739.17
332.8 K, 24665 kPa	739.63
342.69 K, 1019 kPa	713.8
342.69 K, 2025 kPa	714.75
342.69 K, 3025 kPa	715.67
342.69 K, 4014 kPa	716.58
342.69 K, 5015 kPa	717.47
342.69 K, 6017 kPa	718.36
342.69 K, 7021 kPa	719.25
342.69 K, 8007 kPa	720.13
342.69 K, 9019 kPa	721.03
342.69 K, 10018 kPa	721.86
342.69 K, 11016 kPa	722.71
342.69 K, 12013 kPa	723.56
342.69 K, 13021 kPa	724.39
342.69 K, 14020 kPa	725.21
342.69 K, 15030 kPa	726.04
342.69 K, 16024 kPa	726.83
342.69 K, 17011 kPa	727.58
342.69 K, 18025 kPa	728.36
342.69 K, 19023 kPa	729.15
342.69 K, 20013 kPa	729.88
342.69 K, 21006 kPa	730.67
342.69 K, 22021 kPa	731.41
342.69 K, 23014 kPa	732.15
342.69 K, 24013 kPa	732.89
342.69 K, 24725 kPa	733.44
352.51 K, 1021 kPa	706.54
352.51 K, 2027 kPa	707.55
352.51 K, 3013 kPa	708.48
352.51 K, 4019 kPa	709.46
352.51 K, 5027 kPa	710.45
352.51 K, 6014 kPa	711.35
352.51 K, 7020 kPa	712.33
352.51 K, 8000 kPa	713.23
352.51 K, 9024 kPa	714.18
352.51 K, 10009 kPa	715.07
352.51 K, 11022 kPa	715.96
352.51 K, 12012 kPa	716.84
352.51 K, 13026 kPa	717.71
352.51 K, 14017 kPa	718.6
352.51 K, 15021 kPa	719.45
352.51 K, 16022 kPa	720.3
352.51 K, 17012 kPa	721.08
352.51 K, 18027 kPa	721.95
352.51 K, 19013 kPa	722.74
352.51 K, 20028 kPa	723.53
352.51 K, 21021 kPa	724.33
352.51 K, 22023 kPa	725.14
352.51 K, 23008 kPa	725.88
352.51 K, 24020 kPa	726.65
352.51 K, 24813 kPa	727.31
362.29 K, 1015 kPa	699.21
362.29 K, 2020 kPa	700.31
362.29 K, 3015 kPa	701.33
362.29 K, 4012 kPa	702.34
362.29 K, 5029 kPa	703.4
362.29 K, 6009 kPa	704.36
362.29 K, 7029 kPa	705.38
362.29 K, 8013 kPa	706.3
362.29 K, 9012 kPa	707.31
362.29 K, 10038 kPa	708.31
362.29 K, 11027 kPa	709.22
362.29 K, 12009 kPa	710.09
362.29 K, 13007 kPa	711.04
362.29 K, 14015 kPa	711.96
362.29 K, 15008 kPa	712.81
362.29 K, 16034 kPa	713.71
362.29 K, 17030 kPa	714.59
362.29 K, 18011 kPa	715.43
362.29 K, 19021 kPa	716.29
362.29 K, 20007 kPa	717.15
362.29 K, 21017 kPa	717.94
362.29 K, 22032 kPa	718.77
362.29 K, 23002 kPa	719.6
362.29 K, 24005 kPa	720.38
362.29 K, 24809 kPa	721.05
